In test [1] the test system is severe asthma-induced mice. The experiment in a line: OVA-induced asthma mice: AHR and IL-4. Format: in vivo. Particulars: pre-treated at 10 μM (so in the source). The source says: Mast cells play a pivotal role in the initial reaction to asthma, and when an allergen enters the body from the outside through an airway, the mast cells are activated, thereby secreting various cytokines (interleukin-4 and interleukin-13). Due to the cytokines, the influx of inflammatory cells, the generation of mucus and the airway contraction occur. The inventors used 7-week-old (18 to 20 g) female BALB/c mice provided by Orient (Seoungnam, Korea) for the experiment to confirm the antiasthma effect, and then the asthma was induced in the mice. […] On the 24th day of the initial sensitization, airway hyperresponsiveness (AHR) was detected, and on the 25th day, the mice were dissected to observe asthma phenotypes, for example, inflammatory cytokine IL-4 expression and the influx of inflammatory cells (neutrophils). […] On the 23rd day of the initial sensitization, AHR was detected, and on the 24th day, the mice were dissected to observe a severe asthma phenotype, for example, the influx of the inflammatory cells (neutrophils). […] The AHR was analyzed using an enhanced pause as the indicator of the asthma phenomenon. Bronchoalveolar lavage fluid cell counts were quantified by counting cells under an optical microscope (magnification, 200×). In each analysis, 4 fields were subjected to counting, each sample was analyzed twice, and the analysis was repeated three times.

Test [2] concerns MDA-MB-231 cells. Briefly: Matrigel invasion of breast cancer cells. Format: cell-based. The protocol: (§1) The breast cancer cells such as the MDA-MB-231 cells were obtained from Korean Cell Line Bank (Seoul, Korea), and the MDA-MB-435 cells were provided by J. H. Lee (Asan Medical Center, Seoul, Korea). These cells were cultured in an RPMI 1640 medium (Invitrogen) containing 10% FBS (Life Technologies, Inc.), 1% penicillin (50 units/mL), and an antibiotic antimycotic solution (Life Technologies, Inc.) at 37° C. under a 5% CO2 condition.
(§2) To detect the invasion of breast cancer cells according to the treatment of the compound of the present invention, BioCoat Matrigel Invasion Chambers (BD Biosciences, Bedford, Mass.) were used. 5×10^4 of the breast cancer cells were harvested with trypsin-EDTA, resuspended in 0.5% serum-containing RPMI 1640, and transferred to Matrigel inserts. Five percent serum-containing RPMI 1640 was added to the lower chamber, and the cells were cultured at 37° C. for 36 hours. Each filter was fixed with methanol for 3 minutes, and stained with hematoxylin and eosin for 10 minutes. The invasiveness of the cancer cells was quantified by cell counts on the lower side of the filter under an optical microscope (magnification, 200×). In each analysis, 6 fields were quantified. Each sample was analyzed twice, and the analysis was repeated three times.

The test system of test [3] is MDA-MB-435 cells. The experiment in a line: Matrigel invasion of breast cancer cells. Format: cell-based. The protocol:
as §1, §2

The subject of test [4] is MDA-MB-231 cells. The experiment in a line: IL-8 expression (RT-PCR). In kind it is cell-based. As to the method: as §1
(§3) To confirm the IL-8 expression according to the treatment of the compound of the present invention, total RNA was isolated from cells using Easy Blue (Intron, Sungnam, Korea), and quantified by absorbance at 260 nm. Complementary DNA (cDNA) was synthesized with the RNA (1.25 μg) through reverse transcription using a polymerase chain reaction (PCR) technique. An expression level was determined using primers specifically binding to IL-8 and glyceraldehyde-3-phosphate dehydrogenase (GAPDH).

Test [5] has as its system MDA-MB-435 cells. The experiment in a line: IL-8 expression (RT-PCR). Format: cell-based. The protocol:
as §1, §3

The next test addresses T1, BLT2 (Homo sapiens, UniProt Q9NPC1).
T1 construct: HA; expressed in transfected cells
T1 sequence (Q9NPC1 with tags, fused parts or gaps): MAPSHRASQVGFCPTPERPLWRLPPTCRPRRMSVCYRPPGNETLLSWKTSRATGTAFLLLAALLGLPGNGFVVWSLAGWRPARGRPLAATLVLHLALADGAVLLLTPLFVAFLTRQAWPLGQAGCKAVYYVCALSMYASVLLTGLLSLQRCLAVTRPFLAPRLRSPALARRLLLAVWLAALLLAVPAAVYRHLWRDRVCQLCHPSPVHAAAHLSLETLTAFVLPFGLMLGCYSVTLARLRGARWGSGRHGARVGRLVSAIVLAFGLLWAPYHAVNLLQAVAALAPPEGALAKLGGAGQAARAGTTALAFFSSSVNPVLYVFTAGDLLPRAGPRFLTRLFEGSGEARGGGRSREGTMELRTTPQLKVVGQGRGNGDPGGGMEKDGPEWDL
The experiment in a line: [3H]LTB4 and BLT2 binding inhibition, CHO-BLT2 cell membrane proteins. Particulars: [3H]LTB4 5 nM.

The values that follow come from US10766857B2, “Compound having BLT inhibitory activity and composition, for preventing or treating inflammatory diseases, comprising same as active ingredient” (DONGGUK UNIVERSITY INDUSTRY-ACADEMIC COOPERATION FOUNDATION, priority 2015, dated 2020).

Protocol for BLT2: The inhibition of LTB4 and BLT2 binding (ligand binding affinity) was analyzed using radioactive tritium (^3H)-labeled LTB4 ([^3H]LTB4, ARC; specific activity 160.0 Ci/mmol). After 2×10^6 of CHO-BLT2 cells were plated into a 100-mm culture dish and cultured for 48 hours, an experimental method was carried out as follows: Collected cells were treated using a homogenizer a total of five times for 1 minute each to separate proteins of the cell membrane. Afterward, the cells were subjected to centrifugation at 4° C. and 45,000 rpm for 40 minutes to only collect the proteins of the cell membrane, and thereby, a protein concentration of 40 μg/45 μL was quantified. When a BLT2-containing cell membrane proteins which were quantified in the same manner was treated with the same amount of [^3H]LTB4 (5 nM), and then a different concentration (10^−9, 10^−8, 10^−7, 10^−6 or 10^−5 M) of a compound, a degree of inhibiting the tritium-labeled LTB4 and BLT2 binding was measured using a Hidex 300sL liquid scintillation counter.

In the case of `CCCCC(=O)N(CC#Cc1ccc(C(=O)N2CCN(C(C)C)CC2)cc1)c1ccccc1` [LMT-696, N-(3-(4-(4-isopropylpiperazine-1-carbonyl)phenyl)prop-2-ynyl)-N-phenylpentaneamide], the AHR reduced in test [1] (airway constrictor 50 mg/ml) came out at 70%. Moreover, in test [1] (cells isolated from the abdominal cavity of the mice), the “generation of IL-4 reduced” value is 70%. The “cancer cell invasion inhibited” value is 70% in the test on MDA-MB-231 cells [2] and 56% in the test on MDA-MB-435 cells [3]. Also, the IL-8 expression level entry in the test with MDA-MB-231 cells [4] and in the test with MDA-MB-435 cells [5] was “significantly inhibited” throughout. On BLT2, the IC50 came out at 5.6 nM.

What is called IC50 is the concentration that gives 50% inhibition.
